How the values were obtained:
[1] = test system: C1300 mouse neuroblastoma; assay: In vivo tumor thrombosis, C1300; set-up: species or system BALB/c nu/nu mice; conditions: large C1300 tumors (>1000 mm^3), 24 hours after injection
Description: Tumor test systems were of four types: i) 3LL mouse lung carcinoma growing subcutaneously in C57BL/6 mice; ii) C1300 mouse neuroblastoma growing subcutaneously in BALB/c nu/nu mice; iii) HT29 human colorectal carcinoma growing subcutaneously in BALB/c nu/nu mice; and iv) C1300 Muγ mouse neuroblastoma growing subcutaneously in BALB/c nu/nu mice. The C1300 Muγ tumor is an interferon-γ secreting transfectant derived from the C 1300 tumor (Watanabe et al., 1989).
To establish tumors, 10^6 to 1.5×10^7 tumor cells were injected subcutaneously into the right anterior flank of the mice. When tumors had grown to various sizes, mice were randomly assigned to different study groups. […] Fab′, or bispecific antibody. Other mice received equivalent quantities IgG, Fab′ or bispecific antibody alone. The injections were performed slowly into one of the tail veins over approximately 45 seconds, usually followed by 200 μl of saline.
Twenty-four hours after being injected with tTF or immunoglobulin-tTF conjugates, the mice were anesthetized with metophane and were exsanguinated by perfusion with heparinized saline. Tumors and normal tissues were excised and immediately fixed in 3% (v/v) formalin. Paraffin sections were cut and stained with hematoxylin and eosin. Blood vessels having open lumens containing erythrocytes and blood vessels containing thrombi were counted. […]

[2] = test system: H460 human non-small cell lung carcinoma; assay: Anti-tumor effects, H460; type: in vivo, nu/nu mice
Description: The tumor test systems were: i) L540 human Hodgkin's disease tumors growing in SCID mice; ii) C1300 Muγ (interferon-secreting) neuroblastoma growing in nu/nu mice; iii) H460 human non-small cell lung carcinoma growing in nu/nu mice. To establish solid tumors, 1.5×10^7 tumor cells were injected subcutaneously into the right anterior flank of SCID or BALB/c nu/nu mice (Charles River Labs., Wilmingham, Mass.). When the tumors had grown to various diameters mice were assigned to different experimental groups, each containing 4 to 9 mice.
Other mice received equivalent quantities of bispecific antibody alone. The injections were performed over ˜45 seconds into one of the tail veins, followed by 200 μl of saline. The infusions were repeated six days later. Perpendicular tumor diameters were measured at regular intervals and tumor volumes were calculated.

[3] = test system: citrated mouse or human plasma; assay: In vitro coagulation assay on A20 cells; type: cell-based
immobilized tTF = biological target: T1, immobilized tTF (Homo sapiens, UniProt P13726); assay: Real time binding study (surface plasmon resonance); conditions: alone or preincubated with endotoxin or factor VIIa
T1 construct: the extracellular domain of the mature Tissue Factor protein (amino acid 1-219 of the mature protein; inferred from Ni-NTA purification); made in house; host or cells: E. coli (periplasmic secretion, vector pswc7)
T1 sequence (P13726 33-251): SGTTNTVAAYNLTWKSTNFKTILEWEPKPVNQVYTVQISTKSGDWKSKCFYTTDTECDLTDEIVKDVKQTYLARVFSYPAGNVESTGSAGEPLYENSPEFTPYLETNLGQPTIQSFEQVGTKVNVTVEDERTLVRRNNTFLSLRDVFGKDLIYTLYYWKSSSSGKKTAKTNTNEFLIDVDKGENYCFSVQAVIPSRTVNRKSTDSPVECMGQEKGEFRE

[4] = test system: 2F2B mouse endothelial cells; assay: Binding of tTF to endothelial cells (FACS, cell bound coagulation assay); type: cell-based
Description: Cells were washed and coagulation factor mix (as described above) was added. S2765 substrate was added and Factor Xa generation was measured as described above.
Fluorescent cells were detected on a flow cytometer (Becton Dickinson, San Jose, Calif.).

F9 sarcoma = assay: Sarcoma mouse model, tumor necrosis; type: in vivo, balb/c nude mice; conditions: endotoxin-free tTF, 4 μg
Description: 1×10^7 F9 sarcoma cells were injected subcutaneously into the right flank of balb/c nude mice. Subcutanous tumors were measured with a caliper in three perpendicular directions a, b, and c, and volumes calculated according to the formula V=π/6×a×b×c. Treatment was initiated when subcutaneous tumors reached a size of 150 to 300 μl.
Reagents were administered into the lateral tail vein.
Mice were closely observed after treatment for clinical signs of toxicity and clinical status was documented at defined time points. Three days after treatment, mice were sacrificed and tumors were harvested. Paraffin embedded tissues were stained with hematoxilin and eosin (H&E). Tissue sections were analyzed on a light microscope by two independent investigators and histological findings were documented. Tumor sections with necrotic areas were scanned with a GS-700 imaging densitometer (Biorad, Hercules, Calif.) and areas of necrosis were calculated as % of total section area.

[5] = test system: L540 human Hodgkin's tumors; assay: Anti-VCAM-1•tTF coaguligand, L540; type: in vivo, SCID mice
Description: Mice bearing subcutaneous L540 tumors were injected intravenously with anti-VCAM-1 antibody and, two hours later, the mice were exsanguinated. The tumor and normal organs were removed and frozen sections were prepared and examined immunohistochemically to determine the location of the antibody. […] No localization of anti-VCAM-1 antibody was found in testis or any normal organ except heart and lung.
Before coaguligand injection, tumors were viable, having a uniform morphology lacking regions of necrosis. […] Within four hours of coaguligand injection, 40-70% of blood vessels were thrombosed, despite the initial staining of only 20-30% of tumor blood vessels. The thrombosed vessels contained occlusive platelet aggregates, packed erythrocytes and fibrin. In several regions, the blood vessels had ruptured, spilling erythrocytes into the tumor interstitium.
The drug was administered i.v. 3 times at intervals of 4 days.

Q: “tTF: extracellular domain of the mature Tissue Factor protein (amino acid 1-219)” was tested. Which “thrombosis of tumor vessels” value [1] did it give?
A: Its value is “virtually all vessels were thrombosed”.

Q: And the “effect on growth rate” value ([2]; first treatment, small (250 mm^3) tumors)?
A: Its value is “little effect on growth rate”.

Q: And the “tumor volume after regression” value ([2]; second treatment given at 900 mm^3)?
A: Its value is 550 mm^3.

Q: What about the plasma coagulation time ([3]; 10^−10 M tTF219, absence of Factor VIIa) of the same substance?
A: The plasma coagulation time was 60 s.

Q: And the plasma coagulation time ([3]; 10^−10 M tTF219, presence of 13.5 nM Factor VIIa)?
A: Its plasma coagulation time is 20 s.

Q: And the coagulation time ([3]; 20,000 molecules per cell)?
A: The coagulation time was 140 s.

Q: And the coagulation time ([3]; 300,000 molecules of tTF per cell)?
A: Its coagulation time is 40 s.

Q: What about the “concentration at which plasma coagulated in 50 seconds” value ([3]; localized on A20 cells via B21-2/10H10) of the same substance?
A: The value was 3 nM.

Q: What about the “increase in coagulation-inducing potency” value ([3]; presence of 0.1 nM Factor VIIa) of the same substance?
A: The value was 2-5 fold.

Q: And the “time until fibrin strands visible after addition of plasma” value ([3]; tTF bound to A20 cells by B21-2/10H10, mouse plasma)?
A: The value was 36 s.

Q: And the “binding to immobilized tTF” value (immobilized tTF)?
A: The value was “did not bind to or homodimerize with immobilized tTF”.

Q: And the “binding to endothelial cells expressing tissue factor” value [4]?
A: The value was “no binding of tTF to endothelial cells”.

Q: What about the “average tumor tissue necrosis” value (F9 sarcoma) of the same substance?
A: The value was 45%.

Q: And the “effect on tumor growth” value ([5]; 0.3-0.4 cm^3 tumors, i.v. 3 times at intervals of 4 days)?
A: The value was “did not affect tumor growth”.

Q: And the “control reagents that caused thrombosis of tumor vessels” value ([5]; equivalent quantities)?
A: Its value is “None”.

From patent US20030129193A1 (priority 2001, published 2003)
